These results are taken from patent publication US7897637B2, “Methods of using flavonoids to enhance memory” (The Salk Institute for Biological Studies, priority 2006, dated 2011).

The subject of assay [1] is PC12 cells. Kind of assay: PC12 cell differentiation assay (neurite outgrowth). Format: cell-based. Particulars: for EC50 / Emax: Rattus norvegicus, PC-12, PC12 cells in N2 medium, 24 hours, neurites scored; for EC50: read-out: EC50 (μM), induction of PC12 cell differentiation; for Emax: read-out: Maximal Efficacy, induction of PC12 cell differentiation. The method, then:
Four trihydroxyflavones (THF) and three dihydroxyflavones (DHF) which lack one or two, respectively, of the hydroxyl groups found in fisetin were tested for their ability to induce the differentiation of PC12 cells. Differentiation was assessed by scoring neurite outgrowth (Sagara et al., J. Neurochem., 90:1144-1155, 2004). […]
PC12 cells in N2 medium were treated with flavonoids for 24 hours at which time the cells were scored for the presence of neurites. PC12 cells produce neurites much more rapidly when treated in N2 medium than when treated in regular growth medium (Kimura et al., J. Cell Biol., 116:777-83, 1992). For each treatment, 100 cells in each of three separate fields were counted. Cells were scored positive if one or more neurites>1 cell body diameter in length were observed.

Assay [2] deals with HT22 cells. Kind of assay: Protection of HT22 cells from oxidative glutamate toxicity (MTT assay). It is filed as cell-based, mouse. Particulars: for EC50 / Emax: 5 mM glutamate, MTT assay; for EC50: read-out: EC50 (μM), protection from oxidative-stress induced death; for Emax: HT-22, read-out: Maximal Efficacy, protection from oxidative-stress induced death; for effect of higher levels of BSO on protection: 5 mM glutamate + 1 mM BSO. (In general: Tetrazolium assays rely on reduction of a dye to a coloured formazan, in cell work by metabolically active cells.)

Assay [3] is described as follows: Trolox Equivalent Activity Concentration (ABTS decolorization assay). Particulars: Trolox as reference. The method, then: To determine if the protection seen with the different fisetin derivatives correlated with their antioxidant properties, their Trolox Equivalent Activity Concentration (TEAC) values were determined. In this procedure, a compound is compared to Trolox, a water-soluble vitamin E analog, for its ability to reduce the radical cation of ABTS in aqueous solution. As reported previously, fisetin has a TEAC value of ˜3 (Table II). None of the derivatives had TEAC values in this range despite, in some cases, showing better protection against oxidative stress-induced death. Thus, there was no correlation with antioxidant activity as defined by TEAC value and protection in this system.
TEAC values for the flavonoids were determined according to (Re et al. Free Rad. Biol. Med., 26:1231-7, 1999) but modified for a plate reader. Briefly, 250 μl of 2,2′-azinobis(3-ethylbenzothiazoline 6-sulfonate)(ABTS) treated overnight with potassium persulfate and diluted to an OD of ˜0.7 at 734 nm was added to 2.5 μl of a flavonoid solution in ethanol. The change in absorbance due to the reduction of the ABTS radical cation was measured at 734 nm for 4 minutes. To calculate the TEAC, the gradient of the plot of the percentage inhibition of absorbance vs. concentration for the flavonoid in question is divided by the gradient of the plot for Trolox.

Where [4] appears, read: Mus musculus, HT-22, 24 h, HT22 cells, 24 hours.
[5] abbreviates: Mus musculus, HT22 cells, 24 hours.

Molecules are shown by their SMILES. Entries after “also recorded” stand apart in the source; their conditions may differ. Read-outs that look alike come from different tables or passages of the source.

One may read the EC50 as the midpoint of the concentration-response curve. Take `O=c1c(O)c(-c2ccc(O)c(O)c2)oc2ccccc12` [3,3′,4′-THF, 3,3′,4′-trihydroxyflavone]: the “ability to induce differentiation” value in assay [1] (PC12 cells) is “most effective of those tested”. Further, the EC50 was 2.5 µM in assay [1]; 0.75 µM in assay [2] (HT22 cells, 24 hours); 1 µM in assay [2] (setting [4]). Also, the Emax in assay [1] was 80 to 90%; in assay [2] (setting [5]), over 90%. In addition, the “differentiation of the PC12 cells” value in assay [1] (concentration of 5 μM) was over 80%. The “effect of low levels of BSO on protection” value in assay [2] (5 mM glutamate + 50 μM BSO, 24 hours, MTT) is “significantly reduced protection”. The “protection from oxidative stress-induced death” value in assay [2] (HT22 cells, glutamate) was “equal to or more effective than fisetin”; in assay [2] (at 2.5 μM), over 85%. For the same molecule, the TEAC in assay [3] was determined as 2.07 ± 0.06.
For the molecule `O=c1cc(-c2ccc(O)c(O)c2)oc2ccccc12` [3′,4′-DHF, 3′,4′-dihydroxyflavone], the EC50 in assay [1] turned out to be 10 µM; in assay [2] (setting [4]) it was 0.9 µM. The Emax in assay [1] was 40 to 50%; in assay [2] (setting [5]) it was over 90%. The “effect of higher levels of BSO on protection” value in assay [2] (24 hours, MTT) is “reduced protection”. The “protection from oxidative stress-induced death” value in assay [2] (HT22 cells, glutamate) is reported as “more effective than fisetin; also recorded: equal to or more effective than fisetin”. Also, the TEAC in assay [3] is 1.24 ± 0.08.
Turning to `O=c1c(O)c(-c2ccc(O)c(O)c2)oc2cc(O)ccc12` [fisetin, 3,3′,4′,7-tetrahydroxyflavone], the EC50 in assay [1] and in assay [2] (setting [4]) was 5 µM each time. Also, the results for the Emax in assay [1] and in assay [2] (setting [5]) were 70 to 80% and over 90%, respectively. For the same molecule, in assay [2] (24 hours, MTT), the “effect of higher levels of BSO on protection” value was “reduced protection”. For the same molecule, the values for the TEAC in assay [3] and in assay [3] (listed as 3,7,3,′4′-THF (fisetin)) were about 3 and 3.11 ± 0.20, respectively.
